In patent US8455399B2, “N-(4-perfluoroalkyl-phenyl)-4-triazolyl-benzamides as insecticides” (Syngenta Crop Protection LLC, priority 2009, dated 2013):

Assays:
Format in all cases: in vivo
Plutella xylostella = Plutella xylostella (diamond back moth) artificial diet test; conditions: 144 h, 200 ppm (concentration in well 18 ppm), L2 larvae, larval mortality and growth regulation after 6 days
Experimental: (§1) Plutella Xylostella (Diamond Back Moth): 24-well microtiter plate (MTP) with artificial diet was treated with test solutions at an application rate of 200 ppm (concentration in well 18 ppm) by pipetting. After drying, the MTP's were infested with L2 larvae (7-12 per well). After an incubation period of 6 days, samples were checked for larval mortality and growth regulation.

Heliothis virescens = Heliothis virescens (tobacco budworm) egg/artificial diet test; conditions: 96 h, 200 ppm (concentration in well 18 ppm), eggs 0-24 h old on artificial diet, egg mortality, larval mortality, growth regulation after 4 days
Experimental: Heliothis Virescens (Tobacco Budworm): Eggs (0-24 h old) were placed in 24-well microtiter plate on artificial diet and treated with test solutions at an application rate of 200 ppm (concentration in well 18 ppm) by pipetting. After an incubation period of 4 days, samples were checked for egg mortality, larval mortality, and growth regulation.

Spodoptera littoralis = Spodoptera littoralis (Egyptian cotton leafworm) leaf disc spray test; conditions: foliar, 72 h, 200 ppm sprayed on cotton leaf discs, 5 L1 larvae, mortality, feeding behavior, growth regulation 3 days after treatment
Description: Spodoptera Littoralis (Egyptian Cotton Leafworm): Cotton leaf discs were placed on agar in a 24-well microtiter plate and sprayed with test solutions at an application rate of 200 ppm. After drying, the leaf discs were infested with 5 L1 larvae. The samples were checked for mortality, feeding behavior, and growth regulation 3 days after treatment (DAT).

Tetranychus urticae = Tetranychus urticae (two-spotted spider mite) leaf disc spray test; conditions: foliar, 192 h, 200 ppm sprayed on bean leaf discs, mite populations of mixed ages, egg, larval and adult mortality 8 days later
Description: Tetranychus Urticae (Two-Spotted Spider Mite): Bean leaf discs on agar in 24-well microtiter plates were sprayed with test solutions at an application rate of 200 ppm. After drying, the leaf discs are infested with mite populations of mixed ages. 8 days later, discs are checked for egg mortality, larval mortality, and adult mortality.

Diabrotica balteata = Diabrotica balteata (corn root worm) artificial diet test; conditions: 120 h, 200 ppm (concentration in well 18 ppm), L2 larvae, larval mortality and growth regulation after 5 days
Experimental: as §1, with “Diabrotica Balteata (Corn Root Worm): A” for “Plutella Xylostella (Diamond Back Moth):”, “(6-10” for “(7-12”, “5” for “6”

Thrips tabaci = Thrips tabaci (onion thrips) leaf disc spray test; conditions: foliar, 168 h, 200 ppm sprayed on sunflower leaf discs, population of mixed ages, mortality after 7 days
Experimental: Thrips Tabaci (Onion Thrips): Sunflower leaf discs were placed on agar in a 24-well microtiter plate and sprayed with test solutions at an application rate of 200 ppm. After drying, the leaf discs were infested with an […] population of mixed ages. After an incubation period of 7 days, samples were checked for mortality.

Measured: pest or weed control at 200 ppm

CCc1cc(C(F)(C(F)(F)F)C(F)(F)C(F)(F)F)cc(C)c1NC(=O)c1ccc(-n2cncn2)c(NC(=O)c2ccc(C#N)cc2)c1 (stereo not shown) [D5, 3-(4-Cyanobenzoylamino)-N-[2-ethyl-4-(1,2,2,3,3,3-hexafluoro-1-trifluoromethyl-propyl)-6-methylphenyl]-4-(1,2,4-triazol-1-yl)benzamide]
≥ 80%: Plutella xylostella | Heliothis virescens | Spodoptera littoralis

Nc1cc(C(=O)Nc2c(Br)cc(C(F)(C(F)(F)F)C(F)(F)C(F)(F)F)cc2Br)ccc1-n1cncn1 (stereo not shown) [B4, 3-amino-N-[2,6-dibromo-4-(1,2,2,3,3,3-hexafluoro-1-trifluoromethylpropyl)-phenyl]-4-(1,2,4-triazol-1-yl)benzamide]
≥ 80%: Plutella xylostella | Heliothis virescens | Spodoptera littoralis | Tetranychus urticae

Cc1cc(C(F)(C(F)(F)F)C(F)(F)F)cc(C)c1NC(=O)c1ccc(-n2cncn2)c(N)c1 [B1, 3-Amino-N-[2,6-dimethyl-4-(1,2,2,2-tetrafluoro-1-trifluoromethylethyl)phenyl]-4-(1,2,4-triazol-1-yl)benzamide]
≥ 80%: Heliothis virescens | Tetranychus urticae

CCc1cc(C(F)(C(F)(F)F)C(F)(F)C(F)(F)F)cc(C)c1NC(=O)c1ccc(-n2cncn2)c([N+](=O)[O-])c1 (stereo not shown) [A3, N-[2-Ethyl-4-(1,2,2,3,3,3-hexafluoro-1-trifluoromethylpropyl)-6-methylphenyl]-3-nitro-4-(1,2,4-triazol-1-yl)benzamide]
≥ 80%: all assays above

CCc1cc(C(F)(C(F)(F)F)C(F)(F)C(F)(F)F)cc(C)c1NC(=O)c1ccc(-n2cncn2)c(NC(=O)c2ccc(F)cc2Cl)c1 (stereo not shown) [D4, 3-(2-Chloro-4-fluorobenzoylamino)-N-[2-ethyl-4-(1,2,2,3,3,3-hexafluoro-1-trifluoromethylpropyl)-6-methylphenyl]-4-(1,2,4-triazol-1-yl)benzamide]
≥ 80%: all assays above

CCc1cc(C(F)(C(F)(F)F)C(F)(F)C(F)(F)F)cc(C)c1NC(=O)c1ccc(-n2cncn2)c(NC(=O)c2ccc(F)cc2)c1 (stereo not shown) [D6, 3-(4-Fluorobenzoylamino)-N-[2-ethyl-4-(1,2,2,3,3,3-hexafluoro-1-trifluoromethyl-propyl)-6-methylphenyl]-4-(1,2,4-triazol-1-yl)benzamide]
≥ 80%: all assays above

O=C(Nc1c(Br)cc(C(F)(C(F)(F)F)C(F)(F)C(F)(F)F)cc1Br)c1ccc(-n2cncn2)c(NC(=O)c2ccc(F)cc2Cl)c1 (stereo not shown) [D9, 3-(2-Chloro-4-fluorobenzoylamino)-N-[2,6-dibromo-4-(1,2,2,3,3,3-hexafluoro-1-trifluoromethylpropyl)phenyl]-4-(1,2,4-triazol-1-yl)benzamide]
≥ 80%: all assays above

N#Cc1ccc(C(=O)Nc2cc(C(=O)Nc3c(Br)cc(C(F)(C(F)(F)F)C(F)(F)C(F)(F)F)cc3Br)ccc2-n2cncn2)cc1 (stereo not shown) [D8, 3-(4-cyanobenzoylamino)-N-[2,6-dibromo-4-(1,2,2,3,3,3-hexafluoro-1-trifluoromethylpropyl)phenyl]-4-(1,2,4-triazol-1-yl)benzamide]
not listed: Tetranychus urticae
≥ 80%: all other assays above

Cc1cc(C(F)(C(F)(F)F)C(F)(F)F)cc(C)c1NC(=O)c1ccc(-n2cncn2)c([N+](=O)[O-])c1 [A1, N-[2,6-Dimethyl-4-(1,2,2,2-tetrafluoro-1-trifluoromethylethyl)phenyl]-3-nitro-4-(1,2,4-triazol-1-yl)benzamide]
not listed: Thrips tabaci
≥ 80%: all other assays above

CCc1cc(C(F)(C(F)(F)F)C(F)(F)F)cc(CC)c1NC(=O)c1ccc(-n2cncn2)c(NC(=O)c2ccc(F)cc2)c1 [D2, 3-(4-fluorobenzoylamino)-N-[2,6-diethyl-4-(1,2,2,2-tetrafluoro-1-trifluoromethylethyl)phenyl]-4-(1,2,4-triazol-1-yl)benzamide]
not listed: Tetranychus urticae
≥ 80%: all other assays above

Cc1cc(C(F)(C(F)(F)F)C(F)(F)F)cc(C)c1NC(=O)c1ccc(-n2cncn2)c(NC(=O)c2ccc(F)cc2)c1 [D1, 3-(4-Fluorobenzoylamino)-N-[2,6-dimethyl-4-(1,2,2,2-tetrafluoro-1-trifluoromethyl-ethyl)phenyl]-4-(1,2,4-triazol-1-yl)benzamide]
≥ 80%: Plutella xylostella | Heliothis virescens | Spodoptera littoralis | Diabrotica balteata

CCc1cc(C(F)(C(F)(F)F)C(F)(F)F)cc(CC)c1NC(=O)c1ccc(-n2cncn2)c(N)c1 [B2, 3-amino-N-[2,6-diethyl-4-(1,2,2,2-tetrafluoro-1-trifluoromethylethyl)phenyl]-4-(1,2,4-triazol-1-yl)benzamide]
not listed: Thrips tabaci
≥ 80%: all other assays above

O=C(Nc1c(Br)cc(C(F)(C(F)(F)F)C(F)(F)C(F)(F)F)cc1Br)c1ccc(-n2cncn2)c([N+](=O)[O-])c1 (stereo not shown) [A4, N-[2,6-dibromo-4-(1,2,2,3,3,3-hexafluoro-1-trifluoromethylpropyl)phenyl]-3-nitro-4-(1,2,4-triazol-1-yl)benzamide]
≥ 80%: all assays above

CCc1cc(C(F)(C(F)(F)F)C(F)(F)C(F)(F)F)cc(C)c1NC(=O)c1ccc(-n2cncn2)c(N)c1 (stereo not shown) [B3, 3-Amino-N-[2-ethyl-4-(1,2,2,3,3,3-hexafluoro-1-trifluoromethylpropyl)-6-methyl-phenyl]-4-(1,2,4-triazol-1-yl)benzamide]
not listed: Thrips tabaci
≥ 80%: all other assays above

CCc1cc(C(F)(C(F)(F)F)C(F)(F)F)cc(CC)c1NC(=O)c1ccc(-n2cncn2)c([N+](=O)[O-])c1 [A2, N-[2,6-Diethyl-4-(1,2,2,2-tetrafluoro-1-trifluoromethylethyl)phenyl]-3-nitro-4-(1,2,4-triazol-1-yl)benzamide]
≥ 80%: Spodoptera littoralis | Diabrotica balteata

CCc1cc(C(F)(C(F)(F)F)C(F)(F)C(F)(F)F)cc(C)c1NC(=O)c1ccc(-n2cncn2)c(NC(=O)c2cccc([N+](=O)[O-])c2C)c1 (stereo not shown) [D3, 3-(2-Methyl-3-nitrobenzoylamino)-N-[2-ethyl-4-(1,2,2,3,3,3-hexafluoro-1-trifluoromethylpropyl)-6-methylphenyl]-4-(1,2,4-triazol-1-yl)benzamide]
≥ 80%: Plutella xylostella | Heliothis virescens | Spodoptera littoralis | Tetranychus urticae

O=C(Nc1cc(C(=O)Nc2c(Br)cc(C(F)(C(F)(F)F)C(F)(F)C(F)(F)F)cc2Br)ccc1-n1cncn1)c1ccc(F)cc1 (stereo not shown) [D7, 3-(4-Fluorobenzoylamino)-N-[2,6-dibromo-4-(1,2,2,3,3,3-hexafluoro-1-trifluoromethylpropyl)phenyl]-4-(1,2,4-triazol-1-yl)benzamide]
not listed: Tetranychus urticae
≥ 80%: all other assays above
